Values of other authors in patent US10329262B2, “Quinazolinone antibiotics” (priority 2013, dated 2019).

Conditions: cited from earlier work

**Q.** Which Plasma protein binding does the source give for `CCCCCCCCCC(=O)N[C@@H](Cc1c[nH]c2ccccc12)C(=O)N[C@H](CC(N)=O)C(=O)N[C@@H](CC(=O)O)C(=O)N[C@@H]1C(=O)NCC(=O)N[C@@H](CCCN)C(=O)N[C@@H](CC(=O)O)C(=O)N[C@H](C)C(=O)N[C@@H](CC(=O)O)C(=O)NCC(=O)N[C@H](CO)C(=O)N[C@@H]([C@H](C)CC(=O)O)C(=O)N[C@@H](CC(=O)c2ccccc2N)C(=O)O[C@@H]1C` [daptomycin] here?
**A.** > 91%
